Molecular target: T1, MET M1250T (Homo sapiens, UniProt P08581, M1250T)
T1 construct: purchased Thermo Fisher Scientific (Life Technologies) SelectScreen
Assay: SelectScreen Z'LYTE
Assay type: biochemical
Method in brief: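 Percent values come from Thermo SelectScreen profiling of NU5455, combining activity and binding assays. CSF1R was run in Z'LYTE format at Km app ATP, and CAMK1 in Adapta format with ATP listed at 10.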

T1 sequence (P08581 25-1390 M1250T): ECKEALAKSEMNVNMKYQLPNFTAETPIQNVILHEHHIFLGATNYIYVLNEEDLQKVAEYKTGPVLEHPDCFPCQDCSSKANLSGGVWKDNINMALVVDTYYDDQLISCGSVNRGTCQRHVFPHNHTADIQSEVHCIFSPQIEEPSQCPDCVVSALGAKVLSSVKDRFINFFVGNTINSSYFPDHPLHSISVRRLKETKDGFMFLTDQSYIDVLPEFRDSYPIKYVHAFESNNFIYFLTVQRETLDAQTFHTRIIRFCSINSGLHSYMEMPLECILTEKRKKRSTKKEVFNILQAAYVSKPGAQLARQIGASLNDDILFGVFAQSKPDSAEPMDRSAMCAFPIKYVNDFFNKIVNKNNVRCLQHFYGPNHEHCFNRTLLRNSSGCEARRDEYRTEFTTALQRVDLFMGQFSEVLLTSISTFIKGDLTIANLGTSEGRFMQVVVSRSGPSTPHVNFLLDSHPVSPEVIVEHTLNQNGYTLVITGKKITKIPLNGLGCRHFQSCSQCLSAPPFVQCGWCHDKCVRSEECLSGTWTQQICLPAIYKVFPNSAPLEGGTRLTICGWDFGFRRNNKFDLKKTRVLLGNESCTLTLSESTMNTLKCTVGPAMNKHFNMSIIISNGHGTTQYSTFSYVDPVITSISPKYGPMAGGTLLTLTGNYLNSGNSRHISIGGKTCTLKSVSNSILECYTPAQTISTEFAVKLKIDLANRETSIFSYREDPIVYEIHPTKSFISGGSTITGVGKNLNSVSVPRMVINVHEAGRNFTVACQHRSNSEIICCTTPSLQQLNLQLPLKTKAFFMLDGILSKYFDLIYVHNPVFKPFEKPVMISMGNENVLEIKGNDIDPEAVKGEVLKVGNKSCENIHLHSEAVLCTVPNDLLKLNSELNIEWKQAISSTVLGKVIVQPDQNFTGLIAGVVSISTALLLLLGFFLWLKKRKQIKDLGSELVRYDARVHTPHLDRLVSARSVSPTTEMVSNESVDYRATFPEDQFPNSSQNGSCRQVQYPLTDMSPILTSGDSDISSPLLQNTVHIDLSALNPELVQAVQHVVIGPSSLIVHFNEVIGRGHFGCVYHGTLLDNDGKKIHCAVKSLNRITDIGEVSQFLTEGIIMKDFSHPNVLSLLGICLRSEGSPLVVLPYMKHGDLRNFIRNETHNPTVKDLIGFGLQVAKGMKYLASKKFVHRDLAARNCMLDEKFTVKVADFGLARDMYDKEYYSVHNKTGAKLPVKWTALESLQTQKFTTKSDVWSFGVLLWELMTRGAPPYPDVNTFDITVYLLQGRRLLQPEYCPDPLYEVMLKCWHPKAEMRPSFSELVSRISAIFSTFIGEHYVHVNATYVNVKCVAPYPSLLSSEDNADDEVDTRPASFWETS

Question: How did the inhibition at 1 µM turn out when `CN(C(=O)CN1CCOCC1)c1ccc2sc3c(-c4cccc5c(=O)cc(N6CC7CCC(C6)O7)oc45)cccc3c2c1` [NU5455] was run?
Answer: Its inhibition at 1 µM is -14.5%.

— paper PMC6934184, “Selective DNA-PKcs inhibition extends the therapeutic index of localized radiotherapy and chemotherapy” (The Journal of Clinical Investigation, 2019)
